One experiment deals with T1, human H3 receptor (Homo sapiens, UniProt Q9Y5N1).
T1 construct: expressed in transfected cells
The experiment is described as follows: Human H3 radioligand binding ([3H]-N-alpha-methylhistamine, CHO cell membranes, SPA). The note with it: Table A, binding constant as letter class. As to the method:
(§1) Cell pellets were resuspended in 5 mM Tris-HCl, pH 7.5 with […] and a cocktail of protease inhibitors (Complete Protease Inhibition Tablets, Roche Diagnostics). Cells were disrupted using a polytron cell homogenizer and the suspension was centrifuged at 1000×g for 10 minutes at 4° C. The pellet was discarded and the supernatant centrifuged at 40,000×g for 30 min at 4° C. This membrane pellet was washed in membrane buffer containing 50 mM Tris-HCl, pH 7.5 with 0.6 mM EDTA, 5 mM MgCl2 and protease inhibitors, recentrifuged as above and the final pellet resuspended in membrane buffer plus 250 mM sucrose and frozen at −80° C.
(§2) Membranes were resuspended in 50 mM Tris HCl (pH 7.4), 5 mM MgCl2, 0.1% BSA. The membrane suspensions (10 μg protein per well) were incubated in a 96 well microtiter plate with [^3H]-N-alpha-methylhistamine (approximately 1 nM final concentration), test compounds at various concentrations (0.01 nM-30 μM) and scintillation proximity beads (Perkin Elmer, FlashBlueGPCR Scintillating Beads) in a final volume of 80 μl for 4 hours at room temperature, protected from light. Non-specific binding was determined in the presence of 10 μM clobenpropit. Radioligand bound to receptor, and therefore in proximity to the scintillation beads, was measured using a MicroBeta scintillation counter.

The target of experiment [1] is T2, rat histamine H3 receptor (Rattus norvegicus, UniProt Q9QYN8).
T2 construct: encoding the entire 445-amino-acid rat histamine H3 receptor; expressed in transfected cells
As to the kind of experiment: Rat H3 radioligand binding ([3H]-N-alpha-methylhistamine, CHO-A3 cell membranes, SPA). The note with it: Table A, binding constant as letter class; read-out: Rat H3 Ki. As to the method:
as §1, with “This was engineered into the pIRES-neo3 mammalian expression vector, which was stably transfected into the CHO-A3 cell line (Euroscreen, Belgium), followed by clonal selection by limiting dilution. Cells were harvested and cell pellets were frozen (−80° C.). Cell pellets” for “Cell pellets”
as §2

T1 sequence (Q9Y5N1 whole entry): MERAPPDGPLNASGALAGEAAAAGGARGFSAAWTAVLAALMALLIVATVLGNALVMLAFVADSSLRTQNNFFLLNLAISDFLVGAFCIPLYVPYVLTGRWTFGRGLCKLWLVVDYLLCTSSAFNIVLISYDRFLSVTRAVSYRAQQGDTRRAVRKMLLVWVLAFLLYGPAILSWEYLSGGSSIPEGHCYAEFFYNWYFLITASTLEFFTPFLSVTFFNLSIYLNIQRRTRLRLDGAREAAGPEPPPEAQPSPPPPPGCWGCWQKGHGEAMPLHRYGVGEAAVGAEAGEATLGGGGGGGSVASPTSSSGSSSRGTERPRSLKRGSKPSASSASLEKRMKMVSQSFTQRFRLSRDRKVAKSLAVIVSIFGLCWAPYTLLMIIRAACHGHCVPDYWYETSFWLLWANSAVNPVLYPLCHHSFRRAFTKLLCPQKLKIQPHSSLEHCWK
T2 sequence (Q9QYN8 whole entry): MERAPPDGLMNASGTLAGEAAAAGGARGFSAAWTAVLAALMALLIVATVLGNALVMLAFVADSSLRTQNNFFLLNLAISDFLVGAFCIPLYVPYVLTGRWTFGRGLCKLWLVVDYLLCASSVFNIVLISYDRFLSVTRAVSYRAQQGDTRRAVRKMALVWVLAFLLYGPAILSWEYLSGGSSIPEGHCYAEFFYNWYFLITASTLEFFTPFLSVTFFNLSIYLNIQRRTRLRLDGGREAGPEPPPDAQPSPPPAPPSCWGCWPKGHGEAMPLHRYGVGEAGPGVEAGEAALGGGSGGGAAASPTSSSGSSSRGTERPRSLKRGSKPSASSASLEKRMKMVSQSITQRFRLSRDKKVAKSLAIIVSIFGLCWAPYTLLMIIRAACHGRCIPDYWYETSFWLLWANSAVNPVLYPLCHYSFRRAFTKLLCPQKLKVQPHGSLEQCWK

In the case of `Cn1nc(-c2ccc(OCCCN3CCCCC3)cc2)cc(Cc2ccccc2)c1=O` [Example 46, 4-Benzyl-2-methyl-6-[4-(3-piperidin-1-yl-propoxy)-phenyl]-2H-pyridazin-3-one], the Ki – broadly, the equilibrium dissociation constant of an inhibitor or competing ligand from its target – on human H3 receptor was in the range of 0.1 to 100 nM; in experiment [1] it was 101 to 500 nM.
In the same order, the values of `C[C@@H]1CCCN1CCCOc1ccc(-c2nn(C)c(=O)cc2-c2ccccc2)cc1` [Example 47, 2-Methyl-6-{4-[3-((R)-2-methyl-pyrrolidin-1-yl)-propoxy]-phenyl}-5-phenyl-2H-pyridazin-3-one] are 0.1 to 100 nM and 0.1 to 100 nM.
For the compound `Cn1nc(-c2ccc(OCCCN3CCCCC3)cc2)c(-c2ccccc2)cc1=O` [Example 48, 2-Methyl-5-phenyl-6-[4-(3-piperidin-1-yl-propoxy)-phenyl]-2H-pyridazin-3-one], the Ki (on human H3 receptor; in experiment [1]) was 0.1 to 100 nM throughout.
Regarding `C[C@@H]1CCCN1CCCOc1ccc(-c2nn(C)c(=O)c3ccccc23)cc1` [Example 49, 2-Methyl-4-{4-[3-((R)-2-methyl-pyrrolidin-1-yl)-propoxy]-phenyl}-2H-phthalazin-1-one], the Ki (at human H3 receptor; in experiment [1]) was 0.1 to 100 nM in each case.
On to `Cn1nc(-c2ccc(OCCCN3CCCCC3)cc2)c2ccccc2c1=O` [Example 50, 2-Methyl-4-[4-(3-piperidin-1-yl-propoxy)-phenyl]-2H-phthalazin-1-one], for which the Ki (at human H3 receptor; in experiment [1]) was 0.1 to 100 nM each time.
As for `Cn1nc(-c2ccc(OCCN3CCCCC3)cc2)c2ccccc2c1=O` [Example 51, 2-Methyl-4-[4-(2-piperidin-1-yl-ethoxy)-phenyl]-2H-phthalazin-1-one], the values for the Ki (on human H3 receptor; in experiment [1]) were 0.1 to 100 nM and over 1000 nM, respectively.
Regarding `Cn1nc(-c2ccc(OCCCN3CCCC3)cc2)c2ccccc2c1=O` [Example 52, 2-Methyl-4-[4-(3-pyrrolidin-1-yl-propoxy)-phenyl]-2H-phthalazin-1-one], the Ki (on human H3 receptor; in experiment [1]) was 0.1 to 100 nM each time.
Take `Cn1nc(-c2ccc(OCCCN3CCCCCC3)cc2)c2ccccc2c1=O` [Example 53, 4-[4-(3-Azepan-1-yl-propoxy)-phenyl]-2-methyl-2H-phthalazin-1-one]: the Ki (at human H3 receptor; in experiment [1]) was 0.1 to 100 nM each time.
Regarding `C[C@@H]1CCCN1CCCOc1ccc(-c2nn(Cc3ccc(Cl)cc3)c(=O)c3ccccc23)cc1` [Example 54, 2-(4-Chloro-benzyl)-4-{4-[3-((R)-2-methyl-pyrrolidin-1-yl)-propoxy]-phenyl}-2H-phthalazin-1-one], the inhibition constant Ki (on human H3 receptor; in experiment [1]) was 0.1 to 100 nM each time.
As to `O=c1c2ccccc2c(-c2ccc(OCCCN3CCCCC3)cc2)nn1Cc1ccc(Cl)cc1` [Example 55, 2-(4-Chloro-benzyl)-4-[4-(3-piperidin-1-yl-propoxy)-phenyl]-2H-phthalazin-1-one], the Ki (on human H3 receptor; in experiment [1]) was 0.1 to 100 nM throughout.
Regarding `C[C@@H]1CCCN1CCCOc1ccc(-c2nn(C)c(=O)c3c2CCC3)cc1` [Example 56, 2-Methyl-4-{4-[3-((R)-2-methyl-pyrrolidin-1-yl)-propoxy]-phenyl}-2,5,6,7-tetrahydro-cyclopenta[d]pyridazin-1-one], the Ki (on human H3 receptor; in experiment [1]) was 0.1 to 100 nM in each case.
Turning to `Cn1nc(-c2ccc(OCCCN3CCCCC3)cc2)c2c(c1=O)CCC2` [Example 57, 2-Methyl-4-[4-(3-piperidin-1-yl-propoxy)-phenyl]-2,5,6,7-tetrahydro-cyclopenta[d]pyridazin-1-one], the Ki (on human H3 receptor; in experiment [1]) was 0.1 to 100 nM throughout.
With `C[C@@H]1CCCN1CCCOc1ccc(C2=NN(C)C(=O)C3CCCC23)cc1` (stereo partly drawn) [Example 58, 2-Methyl-4-{4-[3-((R)-2-methyl-pyrrolidin-1-yl)-propoxy]-phenyl}-2,4a,5,6,7,7a-hexahydro-cyclopenta[d]pyridazin-1-one], the inhibition constant Ki (at human H3 receptor; in experiment [1]) was 0.1 to 100 nM throughout.
As to `CN1N=C(c2ccc(OCCCN3CCCCC3)cc2)C2CCCC2C1=O` (centres unmarked) [Example 59, 2-Methyl-4-[4-(3-piperidin-1-yl-propoxy)-phenyl]-2,4a,5,6,7,7a-hexahydro-cyclopenta[d]pyridazin-1-one], the Ki (on human H3 receptor; in experiment [1]) was 0.1 to 100 nM throughout.
As to `C[C@@H]1CCCN1CCCOc1ccc(-c2nn(C)c(=O)c3c2CCCC3)cc1` [Example 60, 2-Methyl-4-{4-[3-((R)-2-methyl-pyrrolidin-1-yl)-propoxy]-phenyl}-5,6,7,8-tetrahydro-2H-phthalazin-1-one], the inhibition constant Ki (at human H3 receptor; in experiment [1]) was 0.1 to 100 nM throughout.
With `Cn1nc(-c2ccc(OCCCN3CCCCC3)cc2)c2c(c1=O)CCCC2` [Example 61], the Ki (on human H3 receptor; in experiment [1]) was 0.1 to 100 nM throughout.
With `Cn1nc(-c2ccc(OCC3CCNCC3)cc2)c2ccccc2c1=O` [Example 63, 2-Methyl-4-[4-(piperidin-4-ylmethoxy)-phenyl]-2H-phthalazin-1-one], the inhibition constant (Ki) (on human H3 receptor; in experiment [1]) was over 1000 nM throughout.
With `Cn1nc(-c2ccc(OCC3CCN(C4CCC4)CC3)cc2)c2ccccc2c1=O` [Example 64, 4-[4-(1-Cyclobutyl-piperidin-4-ylmethoxy)-phenyl]-2-methyl-2H-phthalazin-1-one], the Ki is 0.1 to 100 nM at human H3 receptor and 101 to 500 nM in experiment [1].
The matching figures for `Cn1nc(-c2ccc(OCC3CCNCC3)cc2)ccc1=O` [Example 66, 2-Methyl-6-[4-(piperidin-4-ylmethoxy)-phenyl]-2H-pyridazin-3-one]: over 1000 nM and over 1000 nM.
For the compound `Cn1nc(-c2ccc(OCC3CCN(C4CCC4)CC3)cc2)ccc1=O` [Example 67, 6-[4-(1-Cyclobutyl-piperidin-4-ylmethoxy)-phenyl]-2-methyl-2H-pyridazin-3-one], the Ki was 101 to 500 nM at human H3 receptor and over 1000 nM in experiment [1].
The matching figures for `CC(C)N1CCC(COc2ccc(-c3ccc(=O)n(C)n3)cc2)CC1` [Example 68, 6-[4-(1-Isopropyl-piperidin-4-ylmethoxy)-phenyl]-2-methyl-2H-pyridazin-3-one]: 0.1 to 100 nM and 101 to 500 nM.
In the same order, the values of `Cn1nc(-c2ccc(OCC3CCN(CC4CC4)CC3)cc2)ccc1=O` [Example 69, 6-[4-(1-Cyclopropylmethyl-piperidin-4-ylmethoxy)-phenyl]-2-methyl-2H-pyridazin-3-one] are 101 to 500 nM and over 1000 nM.
In the same order, the values of `Cn1nc(-c2ccc(OCC3CCN(C4CCCC4)CC3)cc2)ccc1=O` [Example 70, 6-[4-(1-Cyclopentyl-piperidin-4-ylmethoxy)-phenyl]-2-methyl-2H-pyridazin-3-one] are 101 to 500 nM and 101 to 500 nM.
Take `CN1CCC(COc2ccc(-c3ccc(=O)n(C)n3)cc2)CC1` [Example 71, 2-Methyl-6-[4-(1-methyl-piperidin-4-ylmethoxy)-phenyl]-2H-pyridazin-3-one]: the Ki at human H3 receptor lay in the range of 101 to 500 nM; in experiment [1], 501 to 1000 nM.
With `CC(C)N1CCC(Oc2ccc(-c3ccc(=O)n(C)n3)cc2)CC1` [Example 72], the inhibition constant Ki (on human H3 receptor; in experiment [1]) was 0.1 to 100 nM throughout.
Consider `Cn1nc(-c2ccc(OC3CCNCC3)cc2)ccc1=O` [Example 73], for which the Ki on human H3 receptor is 501 to 1000 nM; in experiment [1], over 1000 nM.
On to `Cn1nc(-c2ccc(OC3CCN(C4CCC4)CC3)cc2)ccc1=O` [Example 74], for which the Ki (at human H3 receptor; in experiment [1]) was 0.1 to 100 nM in each case.
As for `C[C@@H]1CCCN1CCCOc1ccc2c(c1)CCc1cc(=O)n(C)nc1-2` [Example 75, 2-Methyl-8-[3-((R)-2-methyl-pyrrolidin-1-yl)-propoxy]-5,6-dihydro-2H-benzo[h]cinnolin-3-one], the Ki (at human H3 receptor; in experiment [1]) was 0.1 to 100 nM in each case.
On to `C[C@@H]1CCCN1CCCOc1ccc2c(c1)CCc1cc(=O)n(-c3ccccc3)nc1-2` [Example 76, 8-[3-((R)-2-Methyl-pyrrolidin-1-yl)-propoxy]-2-phenyl-5,6-dihydro-2H-benzo[h]cinnolin-3-one], for which the Ki (at human H3 receptor; in experiment [1]) was 0.1 to 100 nM each time.
Consider `O=c1cc2c(nn1Cc1ccccc1)-c1ccc(OCCCN3CCCCC3)cc1CC2` [Example 77, 2-Benzyl-8-(3-piperidin-1-yl-propoxy)-5,6-dihydro-2H-benzo[h]cinnolin-3-one], for which the results for the Ki (on human H3 receptor; in experiment [1]) were 0.1 to 100 nM and 101 to 500 nM, respectively.
Take `CC(C)n1nc2c(cc1=O)CCc1cc(OCCCN3CCCCC3)ccc1-2` [Example 78, 2-Isopropyl-8-(3-piperidin-1-yl-propoxy)-5,6-dihydro-2H-benzo[h]cinnolin-3-one]: the inhibition constant (Ki) (on human H3 receptor; in experiment [1]) was 0.1 to 100 nM in each case.

The values are drawn from patent publication US8586588B2, “Aryl pyridazinone derivatives and their use as H3 receptor ligands” (Cephalon, Inc., priority 2006, dated 2013).
